Reference: patent publication US12043612B2, “Methods of manufacturing a bifunctional compound, ultrapure forms of the bifunctional compound, and dosage forms comprising the same” (Arvinas Operations, Inc., priority 2020, dated 2024)
≈ marks a conversion by molar mass, not a printed value. Like-named read-outs stand apart in the source and are kept apart here.

Key:
pKa of Compound A = format: physicochemical
Procedure: (§1) This batch was prepared for use in the 28-day good laboratory practice (GLP) toxicology studies using the same synthetic scheme and processing employed in preparation of active pharmaceutical ingredient (API) to be used in the clinical drug product.

[1] = Glass transition and recrystallization temperature of amorphous solids; format: physicochemical
Procedure: Thus, while crystals of Compound A are quite stable, there is a significant barrier to transforming to a crystalline state from an amorphous form. Indeed, a ramped temperature increase of a partially-crystalline sample does eventually lead to a recrystallization event, but not until a temperature of 200-220° C. is achieved. […] As discussed below, this robust resistance to crystallization is preserved even in the presence of water.
The amorphous form of pure Compound A is robust with a high Tg and even higher recrystallization temperature. The glass transition temperature does decrease under the plasticizing conditions of high humidity. However, the value is still well above the commonly applied 40-50° C. difference between Tg and any temperature the clinical presentation will encounter.

[2] = Solvent screen for dissolution of crystalline Compound A; format: physicochemical
Procedure: A screen was conducted to determine the optimum solvent for use purifying Compound A and for dissolution of crystalline Compound A prior to spray drying.

[3] = Solubility in pH 6.5 simulated intestinal fluid (SIF); format: physicochemical
BCS designation = settings: low solubility, low permeability
[4] = Solubility of Compound A in solvents at 24° C. ± 3° C., 24 h; format: physicochemical; settings: organic solvent or mixture, thermodynamic from solid
Procedure: as §1

[5] = pH-Solubility Profile in buffers and simulated intestinal fluids; format: physicochemical; settings: read-out: pH-Solubility Profile, Concentration
Procedure: as §1

[6] = Oral bioavailability and hepatic clearance with colloid-forming, precipitation-resistant solutions; format: in vivo
MDCK cells = assay: In vitro permeability in MDCK cells; format: in vitro ADME

In the case of N#Cc1ccc(O[C@H]2CC[C@H](NC(=O)c3ccc(N4CCC(CN5CCN(c6cc7c(cc6F)C(=O)N(C6CCC(=O)NC6=O)C7=O)CC5)CC4)nn3)CC2)cc1Cl (some centres unmarked) [Compound A, N-[(1r,4r)-4-(3-chloro-4-cyanophenoxy)cyclohexyl]-6-[4-({4-[2-(2,6-dioxopiperidin-3-yl)-6-fluoro-1,3-dioxo-2,3-dihydro-1H-isoindol-5-yl]piperazin-1-yl}methyl)piperidin-1-yl]pyridazine-3-carboxamide], the pKa1 (pKa of Compound A) is reported as “pKa1 = 6.8”, the pKa2 (pKa of Compound A) is reported as “pKa2 = 2.7” and the “glass transition temperature (Tg)” value [1] is reported as 146 °C. The “temperature of recrystallization event” value ([1]; ramped temperature increase of a partially-crystalline sample) was 200-220 °C, the Dissolution ([2]; DCM:Acetone, 53:47% wt., Solids 0.82 wt %, RT) was “Not dissolved” and the Dissolution ([2]; DCM:Ethanol, 92:8% wt., Solids 2.26 wt %, RT) was “Dissolved”. For the same compound, the Dissolution ([2]; DCM:Methanol, 70:30% wt., Solids 3.2 wt %, RT) was “Turbid solution”, the Dissolution ([2]; DCM:Methanol, 80:20% wt., Solids 3.4 wt %, RT) was “Dissolved” and the Dissolution ([2]; DCM:Methanol, 90:10% wt., Solids 5 wt %, RT) was “Dissolved”. For the same compound, the Dissolution ([2]; DCM:Methanol, 90:10% wt., Solids 6.6 wt %, Temperature 30) was “Dissolved”, the Dissolution ([2]; DCM:Methanol, 90:10% wt., Solids 8.1 wt %, Temperature 35) was “Dissolved” and the Dissolution ([2]; DCM:Methanol, 95:5 wt. %., Solids 4.2 wt %, RT) was “Dissolved”. For the same compound, the Dissolution ([2]; DCM, Solids 0.6 wt %, RT) was “Not dissolved”, the Dissolution ([2]; Methanol, Solids 2.8 wt %, RT) was “Not dissolved” and the Dissolution ([2]; THF, Solids 0.7 wt %, RT) was “Not dissolved”. The solubility ([3]; fassif, thermodynamic from solid, pH 6.5 simulated intestinal fluid (SIF), read-out: crystalline solid's solubility) was 1.2 µg/mL (≈ 1.48 µM), the solubility ([3]; pH 6.5, fassif, read-out: amorphous solubility in SIF) was 30 µg/mL (≈ 36.9 µM) and the BCS designation (BCS designation) was “BCS IV”. The solubility at 24 h ([4]; Acetonitrile, read-out: Solubility, Conc. (mg/mL), 24 h) was 0.79 mg/mL (≈ 973 µM), the solubility at 24 h ([4]; Dichloromethane, read-out: Solubility, Conc. (mg/mL), 24 h) was 25.1 mg/mL (≈ 30900 µM) and the solubility at 24 h ([4]; Dichloromethane/methanol, read-out: Solubility, Conc. (mg/mL), 24 h) was 100 mg/mL (≈ 123000 µM). It also gave a solubility at 24 h ([4]; Ethanol, read-out: Solubility, Conc. (mg/mL), 24 h) of 0.08 mg/mL (≈ 98.5 µM), a solubility at 24 h ([4]; Ethyl acetate, read-out: Solubility, Conc. (mg/mL), 24 h) of 0.2 mg/mL (≈ 246 µM) and a solubility at 24 h ([4]; Methanol, read-out: Solubility, Conc. (mg/mL), 24 h) of 0.29 mg/mL (≈ 357 µM). For the same compound, the solubility at 24 h ([4]; Polyethylene glycol-300, read-out: Solubility, Conc. (mg/mL), 24 h) was 2.8 mg/mL (≈ 3450 µM), the solubility at 24 h ([4]; Propylene glycol, read-out: Solubility, Conc. (mg/mL), 24 h) was 0.75 mg/mL (≈ 923 µM) and the solubility ([5]; aqueous buffer, pH 3 200 mM citrate buffer, pH of solution 3.0) was 15 µg/mL (≈ 18.5 µM). The solubility ([5]; aqueous buffer, pH 5 200 mM citrate buffer, pH of solution 5.0) was 0.5 µg/mL (≈ 0.616 µM), the solubility ([5]; aqueous buffer, pH 6.5 200 mM citrate buffer, pH of solution 6.5) was 0.3 µg/mL (≈ 0.369 µM) and the solubility ([5]; pH 5, fessif, Fed state simulated intestinal fluid, pH of solution 5.0) was 22 µg/mL (≈ 27.1 µM). The solubility ([5]; pH 6.5, fassif, Fasted state simulated intestinal fluid, pH of solution 6.5) was 1 µg/mL (≈ 1.23 µM), the solubility ([5]; simulated gastric fluid, pH 1.2 HCl (aq), pH of solution 1.2) was 397 µg/mL (≈ 489 µM) and the oral bioavailability ([6]; colloid-forming, precipitation-resistant solutions administered) was “modest”. The hepatic clearance ([6]; in vivo) was “low” and the “in vitro permeability in MDCK cells” value (MDCK cells) was “low”.
